From patent US8933233B2, “1,3,4-oxadiazole and 1,3,4-thiadiazole β-lactamase inhibitors” (priority 2012, dated 2015)
Where a name gives a salt, the structure may show the parent alone.

Assays:
[1] = tested on: bacterial strains that express the class D cephalosporinase OXA-15; assay: Synergy MIC / standard BLI potentiation MIC assay, strains expressing OXA-15; assay type: cell-based, E. coli; settings: in presence of a β-lactam; comparator Avibactam (CCC)
Experimental: (§1) Unless otherwise indicated, the activity of the BLI compounds can be described by the MIC value obtained from a Synergy MIC assay or a BLI potentiation assay (e.g as described herein), both of which are run in the presence of a β-lactam.
(§2) The experimental protocol was performed according to Clinical and Laboratory Standards Institute (CLSI) guidelines with modifications as described below (CLSI guidelines can be derived from the CLSI document M07-A9 published in January 2012: “Methods for Dilution Antimicrobial Susceptibility Tests for Bacteria That Grow Aerobically; Approved Standard-Ninth Edition”).
(§3) To prepare for MIC testing, frozen glycerol stocks of clinical isolates (Klebsiella pneumoniae, Eschericia coli, Enterobacter spp, Citrobacter spp, or Pseudomonas aeruginosa) were used to streak for isolated colonies on rich, non-selective, tryptic soy agar containing 5% sheep's blood (TSAB). Frozen glycerol stocks of laboratory engineered, isogenic E. coli strains, which contain cloned β-lactamase expressing plasmids were used to streak for isolated colonies on rich, selective LB agar supplemented with 25 μg/mL tetracycline to maintain the plasmid. All strains were incubated at 37° C. for 18-24 hrs.
(§4) On the day of testing, primary cultures were started by scraping off 5-10 colonies from the TSAB plates containing clinical strains or the tetracycline supplemented LB plates containing engineered strains. The clinical strain material was suspended in ˜5 mL of cation adjusted Mueller Hinton Broth (CAMHB) in 14 mL culture tubes. The engineered strain material was suspended in CAMHB (supplemented with 25 μg/mL tetracycline) in 14 mL culture tubes. All strains were incubated at 37° C. with aeration (200 rpm) for ˜2 hrs until the optical density at 600 nm (OD600) was ≧0.1.
(§5) The two compound components of the assay were each diluted in CAMHB and added to the 96-well broth microdilution assay plates. 50 μL of the β-lactam was added to each well of the assay plate in 2-fold dilutions with final concentrations ranging from 128 to 0.13 μg/mL. 25 μL of the BLI compound was added to all wells in the broth microdilution plates at a final concentration of 4 μg/mL. Inoculum cultures were prepared by standardizing the primary cultures to OD600=0.1 and then adding 20 μL of the adjusted primary culture per 1 mL CAMHB for clinical strains or CAMHB (supplemented with tetracycline at 100 μg/mL) for engineered strains, so that the final inoculum density was ˜10^5 colony forming units per milliliter. Diluted inoculum cultures were used to inoculate 25 μL per well in 96-well broth microdilution assay plates. The final volume of each well was 100 μL and contained a β-lactam at different concentrations, a BLIcompound at 4 μg/mL concentration, the bacterial culture at an OD600 of approximately 0.001 and when necessary tetracycline at 25 μg/mL.
(§6) Plates were incubated for 18-20 hours at 37° C. with aeration (200 rpm). Following incubation, growth was confirmed visually placing plates over a viewing apparatus (stand with a mirror underneath) and then OD600 was measured using a SpectraMax 340PC384 plate reader (Molecular Devices, Sunnyvale, Calif.). Growth was defined as turbidity that could be detected with the naked eye or achieving minimum OD600 of 0.1. MIC values were defined as the lowest concentration producing no visible turbidity.
(§7) The synergy MIC (sMIC) assay determines the concentration of the BLI required to potentiate the activity of a fixed concentration of a β-lactam antibiotic against β-lactamase producing bacterial strains. The experimental protocol was performed according to Clinical and Laboratory Standards Institute (CLSI) guidelines with modifications as described below (CLSI guidelines can be derived from the CLSI document M07-A9 published in January 2012: “Methods for Dilution Antimicrobial Susceptibility Tests for Bacteria That Grow Aerobically; Approved Standard-Ninth Edition”). […]

[2] = tested on: bacterial strains that express KPC β-lactamases; assay: Synergy MIC / standard BLI potentiation MIC assay, strains expressing KPC β-lactamases; assay type: cell-based, isogenic E. coli and clinical isolates; settings: more active for at least one KPC strain and/or better spectrum; comparator Avibactam
Experimental: as §1, §2, §3, §4, §5, §6, §7

| Structure (SMILES) | activity against bacterial strains that express OXA-15, compared with Avibactam [1] | activity and/or spectrum of activity against bacterial strains that express KPC β-lactamases, compared with Avibactam [2] |
| --- | --- | --- |
| N[C@H]1CC[C@H](c2nnc([C@@H]3CC[C@@H]4CN3C(=O)N4OS(=O)(=O)O)o2)CC1 [Compound 781, (2S,5R)-2-(5-((1r,4S)-4-aminocyclohexyl)-1,3,4-oxadiazol-2-yl)-7-oxo-1,6-diazabicyclo[3.2.1]octan-6-yl hydrogen sulfate] | more active than Avibactam | – |
| N=C(N)N1CCC(c2nnc([C@@H]3CC[C@@H]4CN3C(=O)N4OS(=O)(=O)O)o2)CC1 [Compound 712, (2S,5R)-2-(5-(1-carbamimidoylpiperidin-4-yl)-1,3,4-oxadiazol-2-yl)-7-oxo-1,6-diazabicyclo[3.2.1]octan-6-yl hydrogen sulfate] | more active than Avibactam | – |
| O=C1N2C[C@@H](CC[C@H]2c2nnc(CC3CNC3)o2)N1OS(=O)(=O)O [Compound 725, (2S,5R)-2-(5-(azetidin-3-ylmethyl)-1,3,4-oxadiazol-2-yl)-7-oxo-1,6-diazabicyclo[3.2.1]octan-6-yl hydrogen sulfate] | more active than Avibactam | – |
| NC1CCN(c2nnc([C@@H]3CC[C@@H]4CN3C(=O)N4OS(=O)(=O)O)o2)CC1 [Compound 773, (2S,5R)-2-(5-(4-aminopiperidin-1-yl)-1,3,4-oxadiazol-2-yl)-7-oxo-1,6-diazabicyclo[3.2.1]octan-6-yl hydrogen sulfate] | more active than Avibactam | – |
| N=C(N)NCCCc1nnc([C@@H]2CC[C@@H]3CN2C(=O)N3OS(=O)(=O)O)o1 [Compound 714, (2S,5R)-2-(5-(3-guanidinopropyl)-1,3,4-oxadiazol-2-yl)-7-oxo-1,6-diazabicyclo[3.2.1]octan-6-yl hydrogen sulfate] | more active than Avibactam | – |
| N[C@H]1CC[C@@H](c2nnc([C@@H]3CC[C@@H]4CN3C(=O)N4OS(=O)(=O)O)o2)CC1 [Compound 780, (2S,5R)-2-(5-((1s,4R)-4-aminocyclohexyl)-1,3,4-oxadiazol-2-yl)-7-oxo-1,6-diazabicyclo[3.2.1]octan-6-yl hydrogen sulfate] | more active than Avibactam | – |
| NCC(O)c1nnc([C@@H]2CC[C@@H]3CN2C(=O)N3OS(=O)(=O)O)o1 (stereo partly drawn) [Compound 715, (2S,5R)-2-(5-(2-amino-1-hydroxyethyl)-1,3,4-oxadiazol-2-yl)-7-oxo-1,6-diazabicyclo[3.2.1]octan-6-yl hydrogen sulfate] | more active than Avibactam | – |
| Nc1nnc([C@@H]2CC[C@@H]3CN2C(=O)N3OS(=O)(=O)O)o1 [Compound 707, (2S,5R)-2-(5-amino-1,3,4-oxadiazol-2-yl)-7-oxo-1,6-diazabicyclo[3.2.1]octan-6-yl hydrogen sulfate] | more active than Avibactam | – |
| O=C1N2C[C@@H](CC[C@H]2c2nnc(CCCN3CCNCC3)o2)N1OS(=O)(=O)O [Compound 792, (2S,5R)-7-oxo-2-(5-(3-(piperazin-1-yl)propyl)-1,3,4-oxadiazol-2-yl)-1,6-diazabicyclo[3.2.1]octan-6-yl hydrogen sulfate] | more active than Avibactam | – |
| O=C1N2C[C@@H](CC[C@H]2c2nnc(C3CCNCC3)s2)N1OS(=O)(=O)O [Compound 719, (2S,5R)-7-oxo-2-(5-(piperidin-4-yl)-1,3,4-thiadiazol-2-yl)-1,6-diazabicyclo[3.2.1]octan-6-yl hydrogen sulfate] | more active than Avibactam | – |
| O=C1N2C[C@@H](CC[C@H]2c2nnc([C@@H]3CNCCN3)o2)N1OS(=O)(=O)O [Compound 778, (2S,5R)-7-oxo-2-(5-((S)-piperazin-2-yl)-1,3,4-oxadiazol-2-yl)-1,6-diazabicyclo[3.2.1]octan-6-yl hydrogen sulfate] | more active than Avibactam | – |
| NC1CCN(CCc2nnc([C@@H]3CC[C@@H]4CN3C(=O)N4OS(=O)(=O)O)o2)CC1 [Compound 775, (2S,5R)-2-(5-(2-(4-aminopiperidin-1-yl)ethyl)-1,3,4-oxadiazol-2-yl)-7-oxo-1,6-diazabicyclo[3.2.1]octan-6-yl hydrogen sulfate] | – | more active than Avibactam |
| O=C1N2C[C@@H](CC[C@H]2c2nnc(N3CCNCC3)s2)N1OS(=O)(=O)O [Compound 797, (2S,5R)-7-oxo-2-(5-(piperazin-1-yl)-1,3,4-thiadiazol-2-yl)-1,6-diazabicyclo[3.2.1]octan-6-yl hydrogen sulfate] | more active than Avibactam | – |
| N[C@H]1C[C@H](NCc2nnc([C@@H]3CC[C@@H]4CN3C(=O)N4OS(=O)(=O)O)o2)C1 [Compound 757, (2S,5R)-2-(5-((((1r,3S)-3-aminocyclobutyl)amino)methyl)-1,3,4-oxadiazol-2-yl)-7-oxo-1,6-diazabicyclo[3.2.1]octan-6-yl hydrogen sulfate] | more active than Avibactam | – |
| N=C(N)NCc1nnc([C@@H]2CC[C@@H]3CN2C(=O)N3OS(=O)(=O)O)o1 [Compound 704, (2S,5R)-2-(5-(guanidinomethyl)-1,3,4-oxadiazol-2-yl)-7-oxo-1,6-diazabicyclo[3.2.1]octan-6-yl hydrogen sulfate] | more active than Avibactam | – |
| O=C1N2C[C@@H](CC[C@H]2c2nnc(N3CCNCC3)o2)N1OS(=O)(=O)O [Compound 713, (2S,5R)-7-oxo-2-(5-(piperazin-1-yl)-1,3,4-oxadiazol-2-yl)-1,6-diazabicyclo[3.2.1]octan-6-yl hydrogen sulfate] | more active than Avibactam | – |
| NCC(N)c1nnc([C@@H]2CC[C@@H]3CN2C(=O)N3OS(=O)(=O)O)o1 (stereo partly drawn) [Compound 717, (2S,5R)-2-(5-(1,2-diaminoethyl)-1,3,4-oxadiazol-2-yl)-7-oxo-1,6-diazabicyclo[3.2.1]octan-6-yl hydrogen sulfate] | more active than Avibactam | – |
| O=C1N2C[C@@H](CC[C@H]2c2nnc(CNC3CCNCC3)o2)N1OS(=O)(=O)O [Compound 769, (2S,5R)-7-oxo-2-(5-((piperidin-4-ylamino)methyl)-1,3,4-oxadiazol-2-yl)-1,6-diazabicyclo[3.2.1]octan-6-yl hydrogen sulfate] | more active than Avibactam | – |
| NCCNCCc1nnc([C@@H]2CC[C@@H]3CN2C(=O)N3OS(=O)(=O)O)o1 [Compound 716, (2S,5R)-2-(5-(2-((2-aminoethyl)amino)ethyl)-1,3,4-oxadiazol-2-yl)-7-oxo-1,6-diazabicyclo[3.2.1]octan-6-yl hydrogen sulfate] | more active than Avibactam | – |
| N=C(N)N[C@H]1C[C@H](c2nnc([C@@H]3CC[C@@H]4CN3C(=O)N4OS(=O)(=O)O)o2)C1 [Compound 748, (2S,5R)-2-(5-((1r,3S)-3-guanidinocyclobutyl)-1,3,4-oxadiazol-2-yl)-7-oxo-1,6-diazabicyclo[3.2.1]octan-6-yl hydrogen sulfate] | more active than Avibactam | – |
| NCC(O)Cc1nnc([C@@H]2CC[C@@H]3CN2C(=O)N3OS(=O)(=O)O)o1 (stereo partly drawn) [Compound 733, (2S,5R)-2-(5-(3-amino-2-hydroxypropyl)-1,3,4-oxadiazol-2-yl)-7-oxo-1,6-diazabicyclo[3.2.1]octan-6-yl hydrogen sulfate] | more active than Avibactam | – |
